Here are results for 4 compounds from patent US12110295B2, “WD40 repeat domain protein 5 (WDR5) degradation/disruption compounds and methods of use” (Icahn School of Medicine at Mount Sinai, priority 2018, dated 2024).

For this assay, the target named is WDR5 (Homo sapiens, UniProt P61964). Description: Screening of putative WDR5 degraders by Western blot in MV4;11 and/or MIAPACA2 cells. The format is cell-based. Further details: After WDR5 degrader treatment, cells were collected and lysed; endogenous in cells; host or cells: MV4;11 and/or MIAPACA2. Particulars: summary of screening, FIGS. 6-10. The procedure, abridged: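 MV4;11 (1×10^6/well) or MIAPACA2 (1×10^5/well) cells treated 18 h with compound at paired doses between 0.1 and 10 μM, DMSO as control. Total lysates immunoblotted for WDR5 with vinculin, tubulin or GAPDH loading controls; fluorescent secondary detection.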
A general note: A western blot detects proteins with antibodies after separation by electrophoresis.
For the compound `C[C@@H]1CN(c2cc(F)c(-c3cnc(N4CCN(C(=O)CCOCCOCCOCCOCCOCCNc5cccc6c5C(=O)N(C5CCC(=O)NC5=O)C6=O)CC4)nc3)cc2NC(=O)c2ccc(F)cc2C(F)(F)F)C[C@H](C)N1C` (stereo partly drawn) [XF078-127, N-(5-(2-(4-(1-((2-(2,6-dioxopiperidin-3-yl)-1,3-dioxoisoindolin-4-yl)amino)-3,6,9,12,15-pentaoxaoctadecan-18-oyl)piperazin-1-yl)pyrimidin-5-yl)-4-fluoro-2-((3S,5R)-3,4,5-trimethylpiperazin-1-yl)phenyl)-4-fluoro-2-(trifluoromethyl)benzamide], the “effective degradation of WDR5 in MV4;11 and/or MIAPACA2 cells” value (from here on “effective degradation of WDR5”) is reported as “able to effectively degrade WDR5”.

As for `Cc1ncsc1-c1ccc(CNC(=O)[C@@H]2C[C@@H](O)CN2C(=O)[C@@H](NC(=O)CCC(=O)N2CCN(Cc3cnc(N4CC=C(c5cc(NC(=O)c6c[nH]c(=O)cc6C(F)(F)F)c(N6C[C@@H](C)N(C)[C@@H](C)C6)cc5F)CC4)nc3)CC2)C(C)(C)C)cc1` [XF078-141, N-(4-fluoro-5-(1-(5-((4-(4-(((S)-1-((2S,4R)-4-hydroxy-2-((4-(4-methylthiazol-5-yl)benzyl)carbamoyl)pyrrolidin-1-yl)-3,3-dimethyl-1-oxobutan-2-yl)amino)-4-oxobutanoyl)piperazin-1-yl)methyl)pyrimidin-2-yl)-1,2,3,6-tetrahydropyridin-4-yl)-2-((3S,5R)-3,4,5-trimethylpiperazin-1-yl)phenyl)-6-oxo-4-(trifluoromethyl)-1,6-dihydropyridine-3-carboxamide], the “effective degradation of WDR5” value is “able to effectively degrade WDR5”.

In the case of `Cc1ncsc1-c1ccc(CNC(=O)[C@@H]2C[C@@H](O)CN2C(=O)[C@@H](NC(=O)CCCCCCCCCCCCC(=O)NCCN2CCN(Cc3cccc(-c4ccc(N5CCN(C)CC5)c(NC(=O)c5c[nH]c(=O)cc5C(F)(F)F)c4)c3)CC2)C(C)(C)C)cc1` [XF050-162, N^1-((S)-1-((2S,4R)-4-hydroxy-2-((4-(4-methylthiazol-5-yl)benzyl)carbamoyl)pyrrolidin-1-yl)-3,3-dimethyl-1-oxobutan-2-yl)-N^14-(2-(4-((4′-(4-methylpiperazin-1-yl)-3′-(6-oxo-4-(trifluoromethyl)-1,6-dihydropyridine-3-carboxamido)-[1,1′-biphenyl]-3-yl)methyl)piperazin-1-yl)ethyl)tetradecanediamide], the “effective degradation of WDR5” value is on record as “able to effectively degrade WDR5”.

As to `Cc1ncsc1-c1ccc(CNC(=O)[C@@H]2C[C@@H](O)CN2C(=O)[C@@H](NC(=O)CCCCCC(=O)N2CCN(Cc3cnc(N4CC=C(c5cc(NC(=O)c6c[nH]c(=O)cc6C(F)(F)F)c(N6C[C@@H](C)N(C)[C@@H](C)C6)cc5F)CC4)nc3)CC2)C(C)(C)C)cc1` [XF078-144, N-(4-fluoro-5-(1-(5-((4-(7-(((S)-1-((2S,4R)-4-hydroxy-2-((4-(4-methylthiazol-5-yl)benzyl)carbamoyl)pyrrolidin-1-yl)-3,3-dimethyl-1-oxobutan-2-yl)amino)-7-oxoheptanoyl)piperazin-1-yl)methyl)pyrimidin-2-yl)-1,2,3,6-tetrahydropyridin-4-yl)-2-((3S,5R)-3,4,5-trimethylpiperazin-1-yl)phenyl)-6-oxo-4-(trifluoromethyl)-1,6-dihydropyridine-3-carboxamide], the “effective degradation of WDR5” value was “able to effectively degrade WDR5”.
